Assay results: patent US20020028804A1, “Cosmetic compositions containing substituted iminodibenzyl or fluorene derivatives” (Unilever Home & Personal Care USA, Division of Conopco, Inc., priority 2000, published 2002)
Several values for one entry are separate records, joined by “and”; a condition that tells them apart may be missing. Equal entries are not always repeated. Where two headings read alike, the source gives them in different places.

Tested on: human sebocytes
Assay: Sebum suppression: 14C-acetate incorporation in cultured human sebocytes
Type: cell-based
Details: for activity at 1 µM / activity at 10 µM / activity at 100 µM / activity at 0.1 µM: Homo sapiens
Method: Compounds A through H were tested for their potential to suppress sebum expression, alone or in the presence of a retinoid.
Secondary cultures of human sebocytes obtained from an adult […] were grown in 48-well tissue culture plates (Costar Corp.; Cambridge, Mass.) or 96-well tissue culture plates (Packard Co.; Meriden, Conn.) until confluent. Sebocyte growth medium consisted of Clonetics Keratinocyte Basal Medium (KBM) supplemented with 14 μg/ml bovine pituitary extract, 0.4 μg/ml hydrocortisone, 5 μg/ml insulin, 10 ng/ml epidermal growth factor, 1.2×10−10 M cholera toxin, 100 units/ml penicillin, and 100 μg/ml streptomycin. All cultures were incubated at 37° C. in the presence of 7.5% CO2. Medium was changed three times per week.
On the day of experimentation, the growth medium was removed and the sebocytes washed three times with sterile Dulbecco's Modified Eagle Medium (DMEM; phenol red free). Fresh DMEM was added to each sample (duplicates, triplicates, or quadruplicates depending on the experiment) with 5 microliter of test agent solubilized in ethanol either alone or in the presence of one or 10 micromolar of retinol. Controls consisted of addition of ethanol alone, retinol alone, or phenol red, which has estrogen-like activity and is included as a positive control.
Each plate was returned to the incubator for 20 hours followed by the addition of 14C-acetate buffer (5 mM final concentration, 56 mCi/mmol specific activity). Sebocytes were returned to the incubator for four hours after which each culture was rinsed three times with phosphate buffered saline to remove unbound label. Radioactive label remaining in the sebocytes was harvested and counted using a Beckman scintillation counter.

[1] = 1 μM test compound + 1 μM Retinol, read-out: % of Control
[2] = 1 μM test compound + 10 μM Retinol, read-out: % of Control
[3] = 1 μM test compound alone, read-out: % of Control
[4] = 10 μM test compound alone, read-out: % of Control
[5] = 100 μM test compound + 1 μM Retinol, read-out: % of Control
[6] = 100 μM test compound + 10 μM Retinol, read-out: % of Control
[7] = 100 μM test compound alone, read-out: % of Control
[8] = 1 μM test compound + 10 μM Retinol
[9] = 0.1 μM test compound + 1 μM Retinol, read-out: % of Control
[10] = 0.1 μM test compound + 10 μM Retinol, read-out: % of Control
[11] = 0.1 μM test compound alone, 14C-acetate label remaining in sebocytes, 20 h + 4 h, read-out: % of Control
[12] = 10 μM test compound + 1 μM Retinol, read-out: % of Control
[13] = 10 μM test compound + 10 μM Retinol, read-out: % of Control
[14] = 10 μM test compound + 10 μM Retinol

Compound	activity at 1 µM [1]	activity at 1 µM [2]	activity at 1 µM [3]	activity at 10 µM [4]	activity at 100 µM [5]	activity at 100 µM [6]	activity at 100 µM [7]	% of Control (1 μM test compound alone, 1 µM)	activity at 10 µM [12]	other results
CC(O)c1cccc(NC(=O)N2c3ccccc3CCc3ccccc32)c1 (stereo not shown) [Compound A]	82.8%	93.2%	85.7%	91.3%	1%	0.6%	2.1%			
O=C(Nc1ccc(OC(F)(F)F)cc1)N1c2ccccc2CCc2ccccc21 [Compound B]	104%	65.7%	94.1%	89.4%	0.8%	0.6%	1.7%			
O=C(Nc1ccc(O)cc1)N1c2ccccc2CCc2ccccc21 [Compound C]				56.1%				66.4%	37.4%	% of Control [8]: 48.5%; activity at 0.1 µM [9]: 95.1%; activity at 0.1 µM [10]: 84.6%; activity at 0.1 µM [11]: 103%; sebum suppressive activity when combined with retinol (in the presence of retinol / a retinoid, versus compound alone): improved activity
CC1=C(Cl)CCC=C1NC(=O)N1c2ccccc2CCc2ccccc21 [Compound D]		74.6%	77.6%	82.7%	1.1%	0.5%	1.8%		97.1%	% of Control (1 μM test compound + 1 μM Retinol): 96.9%; activity at 10 µM [13]: 76.8%
O=C(CC1c2ccccc2-c2ccccc21)N1CCC(O)(c2ccc(Cl)cc2)CC1 [Compound F]			72.3%					90.2%		% of Control [14]: 27.0%; activity at 0.1 µM [9]: 92.8%; activity at 0.1 µM [10]: 83.6%; activity at 0.1 µM [11]: 95.8%; activity at 10 µM [13]: 16.7%
O=C(CC1c2ccccc2-c2ccccc21)N1CCC(O)(c2ccccc2)CC1 [Compound G]				67.7%		0.6%	2%	70.7%		
CCCN(CCO)C(=O)CC1c2ccccc2-c2ccccc21 [Compound H]	86.4%				67.6%	27.2%	79.8%	74.8% and 102.7%	76.6%	% of Control [8]: 72.8% and 99.9%; % of Control [14]: 80.2% and 100.4%; % of Control (10 μM test compound alone, 10 µM): 74.6% and 111.7%; % of Control (100 μM test compound + 10 μM Retinol): 44.4%; % of Control (100 μM test compound alone, 100 µM): 73.6%
O=S1(=O)OC(c2ccc(O)cc2)(c2ccc(O)cc2)c2ccccc21 [Phenol Red, phenol red, reference compound]										% of Control (28 μM Phenol Red (positive control)): 95.3% and 74.7%; % of Control (280 μM Phenol Red (positive control)): 15.9%
CC1=C(/C=C/C(C)=C/C=C/C(C)=C/CO)C(C)(C)CCC1 [Retinol, retinol, reference compound]										% of Control (1 μM Retinol alone (control)): 98.1%; % of Control (10 μM Retinol alone (control)): 105.8%; activity at 1 µM (1 μM Retinol alone (control)): 96.5%
